The NIST ThermoML archive (doi:10.1016/j.jct.2017.11.012)

Settings: for mass density: 101.33 kPa, Liquid, Buoyancy - hydrostatic balance with magnetic suspension - one sinker

CCCCn1cc[n+](C)c1.[Br-] [1-butyl-3-methylimidazolium bromide]
surface tension liquid-gas [mN/m]
Settings	Ring tensiometer	Wilhelmy Plate
308.39 K	50.28	49.98
313.11 K	49.8	49.69
318.48 K	49.51	49.33
323.54 K	–	48.98
323.57 K	49.22	–
328.1 K	–	48.67
328.14 K	48.96	–
333.02 K	–	48.35
333.03 K	48.6	–
337.99 K	48.27	–
338.01 K	–	48.07
342.75 K	48	47.75
349.14 K	47.72	–
349.16 K	–	47.31
353.12 K	47.24	–
353.41 K	–	47.09
358.27 K	47.27	–
358.3 K	–	46.78
362.9 K	46.86	–
362.92 K	–	46.39

Settings	mass density [kg/m3]
308.39 K	1299.64
313.12 K	1296.36
318.5 K	1292.56
323.58 K	1288.88
328.14 K	1285.46
333.02 K	1281.54
337.96 K	1278.29
342.67 K	1275.32
349.08 K	1271.43
353.08 K	1268.23
358.19 K	1264.49
362.86 K	1261.43

CCCCCCCCCCn1cc[n+](C)c1.[Br-] [1-decyl-3-methylimidazolium bromide]
Settings	mass density [kg/m3]
298.41 K	1128.2
303.45 K	1124.55
308.2 K	1121.27
313.5 K	1117.38
318.29 K	1113.91
322.96 K	1110.37
327.96 K	1106.69
333.59 K	1102.59
337.76 K	1099.91
343.08 K	1095.88
348.29 K	1092.59
352.96 K	1089.23
358.48 K	1085.6
361.87 K	1083.32

Settings	surface tension liquid-gas [mN/m]
303.38 K, Ring tensiometer	28.04
303.43 K, Wilhelmy Plate	27.64
308.15 K, Ring tensiometer	27.97
313.47 K, Ring tensiometer	27.73
318.26 K, Ring tensiometer	27.54
322.99 K, Ring tensiometer	27.14
323.02 K, Wilhelmy Plate	26.87
328.01 K, Ring tensiometer	27.01
328.08 K, Wilhelmy Plate	26.65
332.75 K, Ring tensiometer	26.87
332.76 K, Wilhelmy Plate	26.45
337.48 K, Wilhelmy Plate	26.22
338.06 K, Ring tensiometer	26.74
343.15 K, Ring tensiometer	26.07
343.19 K, Wilhelmy Plate	25.97
347.35 K, Ring tensiometer	26.14
347.47 K, Wilhelmy Plate	25.82
352.46 K, Ring tensiometer	25.77
352.93 K, Wilhelmy Plate	25.57
358.38 K, Ring tensiometer	25.28
358.41 K, Wilhelmy Plate	25.36
361.45 K, Ring tensiometer	25.51
361.5 K, Wilhelmy Plate	25.22

CCn1cc[n+](C)c1.[Br-] [1-ethyl-3-methylimidazolium bromide]
surface tension liquid-gas [mN/m]
Settings	343.14 K	348.29 K	348.32 K	352.84 K	358.28 K	364.1 K	364.11 K
Ring tensiometer	62.01	61.86	–	61.28	61.25	60.53	–
Wilhelmy Plate	–	–	61.4	61.03	60.65	–	60.34

Settings	mass density [kg/m3]
348.26 K	1381.17
352.77 K	1378.39
358.17 K	1375.04
364.02 K	1370.88

CCCCCCCn1cc[n+](C)c1.[Br-] [1-heptyl-3-methylimidazolium bromide]
Settings	mass density [kg/m3]
288.61 K	1204.51
293.46 K	1200.12
298.41 K	1196.78
303.25 K	1193
308.21 K	1189.59
313.68 K	1184.48
318.07 K	1180.84
323.13 K	1177.36
328.04 K	1173.42
333.16 K	1169.7
338.28 K	1165.8
342.93 K	1162.61
348 K	1159.27
353.15 K	1155.57
358.44 K	1151.81
361.83 K	1149.33

surface tension liquid-gas [mN/m]
Settings	Ring tensiometer	Wilhelmy Plate
313.61 K	34.83	34.57
317.99 K	34.5	–
318.02 K	–	34.35
323.11 K	34.21	–
323.13 K	–	34.09
328.07 K	34.3	–
328.11 K	–	33.89
333.19 K	33.55	–
333.24 K	–	33.58
338.33 K	33.25	33.3
341.81 K	33.17	–
341.91 K	–	33.14
347.18 K	33.07	–
347.23 K	–	32.89
353.09 K	32.56	–
353.14 K	–	32.61
358.31 K	32.41	–
358.37 K	–	32.4
361.72 K	32.03	–
361.8 K	–	32.17

CCCCCCCCCn1cc[n+](C)c1.[Br-] [1-methyl-3-nonylimidazolium bromide]
Settings	mass density [kg/m3]
293.53 K	1151.11
298.66 K	1147.53
303.27 K	1143.87
308.55 K	1140.39
313.46 K	1136.5
318.04 K	1132.93
323.21 K	1129.22
327.91 K	1125.75
333.09 K	1122.06
338.45 K	1118.47
342.75 K	1115.49
348.28 K	1112.09
353.51 K	1108.37
358.3 K	1105.2
361.69 K	1103.16

surface tension liquid-gas [mN/m]
Settings	Ring tensiometer	Wilhelmy Plate
298.64 K	30.63	–
303.27 K	30.41	–
303.28 K	–	30.12
308.54 K	30.17	–
308.55 K	–	29.91
313.44 K	29.95	29.73
318.03 K	29.77	29.54
323.2 K	29.62	–
323.23 K	–	29.3
327.94 K	29.41	–
327.97 K	–	29.1
333.09 K	29.19	–
333.11 K	–	28.86
338.49 K	28.72	28.59
342.76 K	28.51	–
342.8 K	–	28.39
348.23 K	28.46	–
348.31 K	–	28.18
352.32 K	27.98	–
352.4 K	–	27.99
358.25 K	27.94	–
358.31 K	–	27.75
361.6 K	27.82	–
361.68 K	–	27.59

CCCCCCCCn1cc[n+](C)c1.[Br-] [1-methyl-3-octylimidazolium bromide]
Settings	mass density [kg/m3]
293.61 K	1173.83
298.22 K	1170.38
303.23 K	1166.69
307.98 K	1163.19
313.53 K	1159.21
318.39 K	1155.7
323.35 K	1151.66
328.26 K	1147.97
332.57 K	1145.04
338.39 K	1140.81
342.96 K	1137.99
347.82 K	1135.43
353.15 K	1131.58
358.97 K	1127.78
360.84 K	1126.32

surface tension liquid-gas [mN/m]
Settings	Ring tensiometer	Wilhelmy Plate
303.23 K	32.9	32.52
307.93 K	–	32.34
307.95 K	32.68	–
313.51 K	32.49	32.16
318.36 K	–	31.99
318.37 K	32.28	–
323.33 K	–	31.75
323.34 K	32.03	–
328.25 K	–	31.56
328.26 K	31.79	–
332.59 K	31.67	–
332.6 K	–	31.43
338.4 K	31.5	–
338.44 K	–	31.17
343.06 K	30.97	–
343.07 K	–	30.89
347.49 K	30.57	–
347.69 K	–	30.73
352.5 K	–	30.58
352.52 K	30.66	–
357.51 K	30.27	–
357.64 K	–	30.33
360.82 K	30.43	–
360.88 K	–	30.24
